Results published in patent US10125139B2, “Pesticidally active polycyclic derivatives with sulfur substituted five-membered ring heterocycles” (Syngenta Participations AG, priority 2015, dated 2018).

What was measured:
Format in all cases: in vivo
[1] = test system: Plutella xylostella (Diamond Back Moth); experiment: Example B8: Plutella xylostella, artificial diet, L2 larvae; details: Plutella xylostella, 120 h; application rate of 200 ppm; 5 days after infestation; L2 larvae; read-out: effect in at least one of the two categories (mortality or growth inhibition)
Description: Example B8: Plutella xylostella (Diamond Back Moth)
(§1) 24-well microtiter plates with artificial diet were treated with aqueous test solutions prepared from 10,000 ppm DMSO stock solutions by pipetting. After drying, the plates were infested with L2 larvae (10 to 15 per well). The samples were assessed for mortality and growth inhibition in comparison to untreated samples 5 days after infestation. The following compounds gave an effect of at least 80% in at least one of the two categories (mortality or growth inhibition) at an application rate of 200 ppm:
(§2) Insecticidal action against Diabrotica balteata (Corn root worm), Plutella xylostella (Diamond black moth), and Spodoptera littoralis (Egyptian cotton leaf worm). The tests were carried out as described in biological examples B2, B8 and B9, respectively, with the larval feeding/contact activity (mortality only) being reported as Breakpoint (BP80) values in parts per million (i.e. the lowest concentration which gives 80% larval mortality).

[2] = test system: Tetranychus urticae (Two-Spotted Spider Mite); experiment: Example B11: Tetranychus urticae feeding/contact activity, bean leaf discs; details: foliar, 192 h
Description: Example B11: Tetranychus urticae (Two-Spotted Spider Mite): Feeding/Contact Activity
Bean leaf discs on agar in 24-well microtiter plates were sprayed with aqueous test solutions prepared from 10,000 ppm DMSO stock solutions. After drying the leaf discs were infested with a mite population of mixed ages. The samples were assessed for mortality on mixed population (mobile stages) 8 days after infestation.

[3] = test system: Spodoptera littoralis (Egyptian Cotton Leaf Worm); experiment: Example B10: Spodoptera littoralis systemic activity, lettuce grown on treated agar; details: 144 h, test rate of 12.5 ppm, 6 days after infestation, read-out: effect in at least one of the three categories (mortality, anti-feeding, or growth inhibition)
Text: Example B10: Spodoptera littoralis (Egyptian Cotton Leaf Worm) Systemic Activity
Test compounds were applied by pipette from 10,000 ppm DMSO stock solutions into 24-well plates and mixed with agar. Lettuce seeds were placed onto the agar and the multi well plate was closed by another plate which contained also agar. After 7 days the compound was absorbed by the roots and the lettuce grew into the lid plate. The lettuce leaves were then cut off into the lid plate. Spodoptera eggs were pipetted through a plastic stencil onto a humid gel blotting paper and the lid plate was closed with it. The samples were assessed for mortality, anti-feedant effect and growth inhibition in comparison to untreated samples 6 days after infestation. The following compounds gave an effect of at least 80% in at least one of the three categories (mortality, anti-feeding, or growth inhibition) at a test rate of 12.5 ppm: […]

[4] = test system: Myzus persicae (Green Peach Aphid); experiment: Example B5: Myzus persicae feeding/contact activity, sunflower leaf discs; details: foliar, 144 h, application rate of 200 ppm, 6 days after infestation
Description: Example B5: Myzus persicae (Green Peach Aphid): Feeding/Contact Activity
Sunflower leaf discs were placed onto agar in a 24-well microtiter plate and sprayed with aqueous test solutions prepared from 10,000 ppm DMSO stock solutions. After drying, the leaf discs were infested with an aphid population of mixed ages. The samples were assessed for mortality 6 days after infestation.

[5] = test system: Diabrotica balteata (Corn Root Worm); experiment: Example B2: Diabrotica balteata, sprayed maize sprouts, L2 larvae; details: Diabrotica balteata, 96 h; application rate of 200 ppm; 4 days after infestation; L2 larvae; read-out: effect in at least one of the two categories (mortality or growth inhibition)
Description: Example B2: Diabrotica balteata (Corn Root Worm)
as §1, with “Maize sprouts placed onto an agar layer in 24-well” for “24-well”, “plates” for “plates with artificial diet”, “spraying.” for “pipetting.”, “(6” for “(10”, “10” for “15”, “4” for “5”
as §2

[6] = test system: Spodoptera littoralis (Egyptian Cotton Leaf Worm); experiment: Example B9: Spodoptera littoralis, cotton leaf discs, L1 larvae; details: Spodoptera littoralis, foliar, 72 h; application rate of 200 ppm; 3 days after infestation; L1 larvae
Description: Example B9: Spodoptera littoralis (Egyptian Cotton Leaf Worm)
Cotton leaf discs were placed onto agar in 24-well microtiter plates and sprayed with aqueous test solutions prepared from 10,000 ppm DMSO stock solutions. After drying the leaf discs were infested with five L1 larvae. The samples were assessed for mortality, anti-feeding effect, and growth inhibition in comparison to untreated samples 3 days after infestation. Control of Spodoptera littoralis by a test sample is given when at least one of the categories mortality, anti-feedant effect, and growth inhibition is higher than the untreated sample.
as §2

[7] = test system: Euschistus heros (Neotropical Brown Stink Bug); experiment: Example B3: Euschistus heros, sprayed soybean leaves, N2 nymphs; details: 120 h, application rate of 200 ppm, 5 days after infestation, read-out: effect in at least one of the two categories (mortality or growth inhibition)
Description: Example B3: Euschistus heros (Neotropical Brown Stink Bug)
Soybean leaves on agar in 24-well microtiter plates were sprayed with aqueous test solutions prepared from 10,000 ppm DMSO stock solutions. After drying the leaves were infested with N2 nymphs. The samples were assessed for mortality and growth inhibition in comparison to untreated samples 5 days after infestation. The following compounds gave an effect of at least 80% in at least one of the two categories (mortality or growth inhibition) at an application rate of 200 ppm: […]

[8] = test system: Myzus persicae (Green Peach Aphid); experiment: Example B7: Myzus persicae intrinsic activity, sucrose solution through Parafilm; details: 120 h, test rate of 12 ppm, 5 days after infestation
Text: Example B7: Myzus persicae (Green Peach Aphid). Intrinsic Activity
Test compounds prepared from 10,000 ppm DMSO stock solutions were applied by pipette into 24-well microtiter plates and mixed with sucrose solution. The plates were closed with a stretched Parafilm. A plastic stencil with 24 holes was placed onto the plate and infested pea seedlings were placed directly on the Parafilm. The infested plate was closed with a gel blotting paper and another plastic stencil and then turned upside down. The samples were assessed for mortality 5 days after infestation.

[9] = test system: Frankliniella occidentalis (Western Flower thrips); experiment: Example B4: Frankliniella occidentalis feeding/contact activity, sunflower leaf discs; details: foliar, 168 h, application rate of 200 ppm, 7 days after infestation, population of mixed ages
Description: Example B4: Frankliniella occidentalis (Western Flower thrips): Feeding/Contact Activity
Sunflower leaf discs were placed on agar in 24-well microtiter plates and sprayed with aqueous test solutions prepared from 10,000 DMSO stock solutions. After drying the leaf discs were infested with a Frankliniella population of mixed ages. The samples were assessed for mortality 7 days after infestation.

[10] = test system: Myzus persicae (Green Peach Aphid); experiment: Example B6: Myzus persicae systemic activity, pea seedling roots in test solution; details: 144 h, test rate of 24 ppm, 6 days after placing seedlings into test solutions
Description: Example B6: Myzus persicae (Green Peach Aphid). Systemic Activity
Roots of pea seedlings infested with an aphid population of mixed ages were placed directly into aqueous test solutions prepared from 10,000 DMSO stock solutions. The samples were assessed for mortality 6 days after placing seedlings into test solutions.

[11] = test system: Bemisia tabaci (Cotton White Fly); experiment: Example B1: Bemisia tabaci feeding/contact activity, cotton leaf discs; details: foliar, 144 h, application rate of 200 ppm, 6 days after incubation, adult white flies
Description: Example B1: Bemisia tabaci (Cotton White Fly): Feeding/Contact Activity
Cotton leaf discs were placed on agar in 24-well microtiter plates and sprayed with aqueous test solutions prepared from 10,000 ppm DMSO stock solutions. After drying the leaf discs were infested with adult white flies. The samples were checked for mortality 6 days after incubation.

CCS(=O)(=O)c1cc(I)sc1-c1nc2cc(C(F)(F)F)ncc2n1C [Example I-1, 2-(3-ethylsulfonyl-5-iodo-2-thienyl)-3-methyl-6-(trifluoromethyl)imidazo[4,5-c]pyridine]
≥ 80%: percent effect (mortality or growth inhibition) at 200 ppm [1] | mortality at 200 ppm [2] | percent effect (mortality, anti-feeding or growth inhibition) at 12.5 ppm [3] | mortality at 200 ppm [4] | percent effect (mortality or growth inhibition) at 200 ppm [5] | percent control (mortality, anti-feedant effect or growth inhibition) at 200 ppm [6]

CCSc1cc(I)sc1-c1nc2cc(SC(F)(F)F)ncc2n1C [Example I-7, 2-(3-ethylsulfanyl-5-iodo-2-thienyl)-3-methyl-6-(trifluoromethylsulfanyl)imidazo[4,5-c]pyridine]
≥ 80%: percent effect (mortality or growth inhibition) at 200 ppm [1] | percent effect (mortality or growth inhibition) at 200 ppm [7] | percent effect (mortality, anti-feeding or growth inhibition) at 12.5 ppm [3] | mortality at 200 ppm [4] | percent effect (mortality or growth inhibition) at 200 ppm [5] | mortality at 12 ppm [8]

CCSc1cc(-c2ccc(Cl)cc2)sc1-c1nc2cc(C(F)(F)F)ncc2n1C [Example P-6, 2-[5-(4-chlorophenyl)-3-ethylsulfanyl-2-thienyl]-3-methyl-6-(trifluoromethyl)imidazo[4,5-c]pyridine]
≥ 80%: percent effect (mortality or growth inhibition) at 200 ppm [1] | mortality at 200 ppm [2] | percent effect (mortality or growth inhibition) at 200 ppm [7] | mortality at 200 ppm [9] | percent effect (mortality or growth inhibition) at 200 ppm [5] | percent control (mortality, anti-feedant effect or growth inhibition) at 200 ppm [6]

CCS(=O)(=O)c1nc(C2CC2)sc1-c1nc2cc(C(F)(F)F)ncc2n1C [Example P-13, 2-cyclopropyl-4-ethylsulfonyl-5-[3-methyl-6-(trifluoromethyl)imidazo[4,5-c]pyridin-2-yl]thiazole]
≥ 80%: percent effect (mortality or growth inhibition) at 200 ppm [1] | percent effect (mortality, anti-feeding or growth inhibition) at 12.5 ppm [3] | mortality at 200 ppm [4] | mortality at 24 ppm [10] | percent effect (mortality or growth inhibition) at 200 ppm [5] | percent control (mortality, anti-feedant effect or growth inhibition) at 200 ppm [6]

CCSc1nc(C2CC2)sc1-c1nc2cc(C(F)(F)F)ncc2n1C [Example P-14, 2-cyclopropyl-4-ethylsulfanyl-5-[3-methyl-6-(trifluoromethyl)imidazo[4,5-c]pyridin-2-yl]thiazole]
≥ 80%: percent effect (mortality or growth inhibition) at 200 ppm [1] | mortality at 200 ppm [4] | percent effect (mortality or growth inhibition) at 200 ppm [5] | percent control (mortality, anti-feedant effect or growth inhibition) at 200 ppm [6] | mortality at 12 ppm [8] | mortality at 200 ppm [11]
